In ChEMBL document CHEMBL1201862, “PubChem BioAssay data set” (2004):
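The compound was tested at five concentrations on cells cultured in 96-well plates, with a 48-hour exposure period. Here, GI50 denotes the concentration required for 50% inhibition of growth.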 The source made the active and inactive calls. Rule as the data show it: active = GI50 up to about 1.1 µM and inactive = higher.

How the values were obtained:
Assay in all cases: inhibition of tumour cell growth, NCI panel, 48 h
786-0 = tested on: 786-0
A498 = tested on: A498
A549 = tested on: A549
ACHN = tested on: ACHN
BT-549 = tested on: BT-549
CAKI-1 = tested on: CAKI-1
CCRF-CEM = tested on: CCRF-CEM
COLO 205 = tested on: COLO 205
DU-145 = tested on: DU-145
HCC 2998 = tested on: HCC 2998
HCT-116 = tested on: HCT-116
HCT-15 = tested on: HCT-15
HL-60 = tested on: HL-60
HOP-62 = tested on: HOP-62
HOP-92 = tested on: HOP-92
HT-29 = tested on: HT-29
Hs-578T = tested on: Hs-578T
IGROV-1 = tested on: IGROV-1
K562 = tested on: K562
KM12 = tested on: KM12
LOX IMVI = tested on: LOX IMVI
M14 = tested on: M14
MCF7 = tested on: MCF7
MDA-MB-231 = tested on: MDA-MB-231
MDA-MB-435 = tested on: MDA-MB-435
MDA-N = tested on: MDA-N
MOLT-4 = tested on: MOLT-4
Malme-3M = tested on: Malme-3M
NCI-H226 = tested on: NCI-H226
NCI-H23 = tested on: NCI-H23
NCI-H460 = tested on: NCI-H460
NCI-H522 = tested on: NCI-H522
NCI/ADR-RES = tested on: NCI/ADR-RES
OVCAR-3 = tested on: OVCAR-3
OVCAR-4 = tested on: OVCAR-4
OVCAR-5 = tested on: OVCAR-5
OVCAR-8 = tested on: OVCAR-8
PC-3 = tested on: PC-3
RPMI-8226 = tested on: RPMI-8226
RXF 393 = tested on: RXF 393
SF-268 = tested on: SF-268
SF-295 = tested on: SF-295
SF-539 = tested on: SF-539
SK-MEL-28 = tested on: SK-MEL-28
SK-MEL-2 = tested on: SK-MEL-2
SK-MEL-5 = tested on: SK-MEL-5
SK-OV-3 = tested on: SK-OV-3
SN12C = tested on: SN12C
SNB-19 = tested on: SNB-19
SNB-75 = tested on: SNB-75
SR = tested on: SR
SW-620 = tested on: SW-620
T47D = tested on: T47D
TK-10 = tested on: TK-10
U-251 = tested on: U-251
UACC-257 = tested on: UACC-257
UACC-62 = tested on: UACC-62
UO-31 = tested on: UO-31

## O=C(CC(=O)Nc1ccccc1)NNC(c1cc(/N=N/c2ccc(Br)cc2)ccc1O)P(O)O (stereo not drawn)
786-0
  GI50: 0.489 µM (active)
A498
  GI50: 2.43 µM (inactive)
A549
  GI50: 6.41 µM (inactive)
ACHN
  GI50: 2.12 µM (inactive)
BT-549
  GI50: 4 µM (inactive)
CAKI-1
  GI50: 3.02 µM (inactive)
CCRF-CEM
  GI50: 0.322 µM (active)
COLO 205
  GI50: 4.49 µM (inactive)
DU-145
  GI50: 3.48 µM (inactive)
HCC 2998
  GI50: 5.46 µM (inactive)
HCT-116
  GI50: 0.504 µM (active)
HCT-15
  GI50: 0.425 µM
HL-60
  GI50: 0.291 µM (active)
HOP-62
  GI50: 6.79 µM (inactive)
HOP-92
  GI50: 4.18 µM (inactive)
HT-29
  GI50: > 10 µM (inactive)
Hs-578T
  GI50: > 10 µM (inactive)
IGROV-1
  GI50: 9.62 µM (inactive)
K562
  GI50: 2.06 µM (inactive)
KM12
  GI50: 1.81 µM (inactive)
LOX IMVI
  GI50: 1.71 µM (inactive)
M14
  GI50: 0.631 µM (active)
MCF7
  GI50: 1.03 µM (active)
MDA-MB-231
  GI50: 2.73 µM (inactive)
MDA-MB-435
  GI50: 1.77 µM (inactive)
MDA-N
  GI50: 3.83 µM (inactive)
MOLT-4
  GI50: 0.321 µM (active)
Malme-3M
  GI50: 2.38 µM (inactive)
NCI-H226
  GI50: 1.57 µM (inactive)
NCI-H23
  GI50: 3.28 µM (inactive)
NCI-H460
  GI50: 0.447 µM (active)
NCI-H522
  GI50: 3.48 µM (inactive)
NCI/ADR-RES
  GI50: 1.06 µM (active)
OVCAR-3
  GI50: 0.333 µM (active)
OVCAR-4
  GI50: 1.85 µM (inactive)
OVCAR-5
  GI50: 6.92 µM (inactive)
OVCAR-8
  GI50: 0.759 µM (active)
PC-3
  GI50: 0.975 µM (active)
RPMI-8226
  GI50: 1.86 µM (inactive)
RXF 393
  GI50: > 10 µM (inactive)
SF-268
  GI50: 0.964 µM (active)
SF-295
  GI50: 3.64 µM (inactive)
SF-539
  GI50: 2.12 µM (inactive)
SK-MEL-28
  GI50: 4.45 µM (inactive)
SK-MEL-2
  GI50: > 10 µM (inactive)
SK-MEL-5
  GI50: 1.53 µM (inactive)
SK-OV-3
  GI50: 5.48 µM (inactive)
SN12C
  GI50: 4.04 µM (inactive)
SNB-19
  GI50: > 10 µM (inactive)
SNB-75
  GI50: 2.32 µM (inactive)
SR
  GI50: 0.494 µM (active)
SW-620
  GI50: 1.55 µM (inactive)
T47D
  GI50: 3.31 µM (inactive)
TK-10
  GI50: 0.851 µM (active)
U-251
  GI50: 3.51 µM (inactive)
UACC-257
  GI50: 4.89 µM (inactive)
UACC-62
  GI50: 1.34 µM (inactive)
UO-31
  GI50: 2.52 µM (inactive)
